“And” between values parts separate entries of the source, which are not always exact repeats. Identical values can stand only once. Numbers after ± are expanded uncertainties.
Conditions: Torsion effusion method

[I][Yb][I] [ytterbium(II) iodide]
Conditions	vapor or sublimation pressure
968 K, Crystal	1.9e-05 ± 5e-06 kPa
975 K, Crystal	2.8e-05 ± 5e-06 kPa
976 K, Crystal	2.8e-05 ± 5e-06 kPa
978 K, Crystal	3.8e-05 ± 4e-06 kPa
982 K, Crystal	3.8e-05 ± 4e-06 kPa
987 K, Crystal	3.8e-05 ± 6e-06 kPa
989 K, Crystal	3.8e-05 ± 5e-06 kPa and 4.8e-05 ± 5e-06 kPa and 5.6e-05 ± 5e-06 kPa
991 K, Crystal	4.8e-05 ± 5e-06 kPa
996 K, Crystal	5.6e-05 ± 5e-06 kPa and 6.6e-05 ± 5e-06 kPa
997 K, Crystal	6.3e-05 ± 5e-06 kPa
998 K, Crystal	5.6e-05 ± 5e-06 kPa
999 K, Crystal	5.6e-05 ± 1e-05 kPa
1003 K, Crystal	6.3e-05 ± 3e-06 kPa
1005 K, Crystal	8.5e-05 ± 1e-05 kPa
1006 K, Crystal	7.6e-05 ± 1e-05 kPa and 7.9e-05 ± 1e-05 kPa
1008 K, Crystal	6.3e-05 ± 6e-06 kPa and 7.6e-05 ± 6e-06 kPa
1011 K, Crystal	8.5e-05 ± 7e-06 kPa
1013 K, Crystal	7.9e-05 ± 1.1e-05 kPa and 0.000115 ± 1e-05 kPa
1014 K, Crystal	9.3e-05 ± 1.1e-05 kPa
1015 K, Crystal	9.5e-05 ± 1.7e-05 kPa
1017 K, Crystal	9.5e-05 ± 1.5e-05 kPa
1019 K, Crystal	9.3e-05 ± 1.5e-05 kPa
1020 K, Crystal	0.000115 ± 1.5e-05 kPa
1021 K, Crystal	0.000141 ± 1.4e-05 kPa
1022 K, Crystal	0.000126 ± 1e-05 kPa
1023 K, Crystal	0.00011 ± 1e-05 kPa
1025 K, Crystal	0.000132 ± 1.7e-05 kPa
1026 K, Crystal	0.000132 ± 1e-05 kPa
1029 K, Crystal	0.000126 ± 2.1e-05 kPa
1030 K, Crystal	0.000158 ± 1e-05 kPa and 0.000151 ± 1e-05 kPa and 0.000182 ± 1e-05 kPa
1034 K, Crystal	0.00017 ± 1.9e-05 kPa
1035 K, Crystal	0.000158 ± 2e-05 kPa and 0.00017 ± 2e-05 kPa and 0.000182 ± 2e-05 kPa
1038 K, Crystal	0.000219 ± 1.6e-05 kPa
1039 K, Crystal	0.000174 ± 3.9e-05 kPa and 0.000204 ± 3.8e-05 kPa
1040 K, Crystal	0.000209 ± 4.5e-05 kPa
1043 K, Crystal	0.000229 ± 5e-06 kPa [middle of 4 runs]
1046 K, Crystal	0.000282 ± 4.9e-05 kPa
1049 K, Crystal	0.000234 ± 2e-05 kPa and 0.000282 ± 5.2e-05 kPa
1068 K, Liquid	0.000468 ± 2.6e-05 kPa
1073 K, Liquid	0.000501 ± 6.5e-05 kPa
1078 K, Liquid	0.000631 ± 7.2e-05 kPa
1082 K, Liquid	0.000631 ± 7.2e-05 kPa
1087 K, Liquid	0.000759 ± 7.3e-05 kPa
1092 K, Liquid	0.000813 ± 8.9e-05 kPa
1098 K, Liquid	0.001 ± 0.00014 kPa
1101 K, Liquid	0.001 ± 0.00014 kPa
1103 K, Liquid	0.001202 ± 0.00015 kPa
1108 K, Liquid	0.00138 ± 0.00014 kPa
1111 K, Liquid	0.001259 ± 0.00014 kPa
1112 K, Liquid	0.001445 ± 0.00014 kPa
1117 K, Liquid	0.001698 ± 0.00017 kPa
1119 K, Liquid	0.001585 ± 0.00019 kPa
1122 K, Liquid	0.001862 ± 0.00018 kPa
1127 K, Liquid	0.002138 ± 0.00015 kPa
1128 K, Liquid	0.001995 ± 0.00025 kPa
1132 K, Liquid	0.002239 ± 0.00025 kPa
1137 K, Liquid	0.002754 ± 0.00026 kPa
1138 K, Liquid	0.002512 ± 0.00026 kPa
1143 K, Liquid	0.002951 ± 0.00035 kPa
1148 K, Liquid	0.003388 ± 0.00038 kPa and 0.00309 ± 0.0004 kPa
1152 K, Liquid	0.003548 ± 0.00037 kPa
1158 K, Liquid	0.004365 ± 0.00055 kPa and 0.003981 ± 0.00057 kPa
1162 K, Liquid	0.004786 ± 0.00055 kPa
1168 K, Liquid	0.005754 ± 0.00046 kPa and 0.005129 ± 0.00044 kPa
1173 K, Liquid	0.006026 ± 0.00043 kPa
1179 K, Liquid	0.006918 ± 0.00068 kPa and 0.006761 ± 0.00068 kPa
1183 K, Liquid	0.007586 ± 0.00067 kPa
1189 K, Liquid	0.00871 ± 0.00075 kPa
1192 K, Liquid	0.008913 ± 0.00059 kPa
